# Activity calls are given as the source filed them.
# Assays:
# [1] = blockers of bursicon-stimulated LGR2 cAMP reporter – cell-based, HEK293, CRE-luciferase reporter, cherry pick, set 2, dose response (AID 743343); format: functional;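 also: transfected cells were stimulated with diluted bursicon conditioned medium after compound addition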
# [2] = blockade of melanocortin 4 receptor signaling – cell-based, plate reader, cherry pick, counter-screen for LGR2 antagonist project, dose response (AID 743444); format: functional;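 also: transfected HEK 293 cells stimulated with alpha-MSH peptide; potency of inhibitors of the alpha-MSH evoked signal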
# [3] = toxicity toward HepG2 liver cells – cell-based, plate reader, cherry-pick, antagonist series, cytotoxicity control, dose response (AID 743416); format: functional
# [4] = alpha-synuclein stem-loop luciferase translation blockers – H4 neuroglioma cells, luminescence, confirmation (AID 1988); format: functional, cell-based
# [5] = A549 cell cytotoxicity, dose response, cytotoxicity control, plate reader, cherry-pick, antagonist series (AID 743412); format: functional, cell-based
# [6] = Luminescence Cell-Based Dose Response HTS to Identify Inhibitors of 5'UTR Stem-Loop Driven Prion Protein mRNA Translation in H4 Neuroglioblastoma Cells. [Related pubchem assays: 1827 (Project Summary), 1813 (Primary HTS)]; format: functional
# [7] = viability of PTEN-deleted HCT116 cells – cell-based, HCT116 PTEN knockout, dose response (AID 1047); format: functional;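 also: HCT116 colon tumor cells with PTEN knocked out; cells exposed to compound for 60 hours before readout; potency for loss of cell viability measured by luminescence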
# [8] = viability of HCT116 lacking mutant beta-catenin – cell-based, human colon tumor, dose response (AID 1045); format: functional;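 also: HCT116 colon tumor cells with beta catenin knocked out; cells exposed to compound for 60 hours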
# [9] = blockers of HIV-1 envelope-mediated cell-cell fusion – cherry-pick, dose response (AID 652057); format: functional, cell-based
# [10] = off-target signal loss in HeLa-CEM21 co-culture – HeLa F-luc CTL cells, cherry-picked, counter-screen for HIV-1 Env fusion inhibitor project, dose response (AID 652040); format: functional, cell-based;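 also: potency for signal decrease marking cytotoxic or nonspecific inhibition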
# [11] = blockers of HIV-1 ZM109 envelope-driven cell-cell fusion – HeLa effector, CEM target cells, luciferase, cherry-pick, dose response (AID 652058); format: functional, cell-based;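 also: luciferase signal from HIV-1 Env mediated cell-cell fusion of effector and target cells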
# [12] = HIV-1 AD8 envelope cell-cell fusion blockers – cherry-pick, dose response (AID 652062); format: functional, cell-based;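 also: luciferase signal from cell-cell fusion driven by HIV-1 clade B AD8 Env; potency is for inhibitors of fusion seen as a drop in luminescence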
# Melanocortin receptor 4 = Melanocortin receptor 4 (Homo sapiens, UniProt P32245); format: functional, cell-based;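 also: Cell-based assay with luminescence read-out, confirmatory dose-response testing for agonist activity of biased ligands at MC4R; human U2OS cells with tagged receptor and beta-arrestin; potency of agonists that increase receptor coupling to beta-arrestin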
# Insulin-degrading enzyme [13] = molecular target: T1, Insulin-degrading enzyme (Homo sapiens, UniProt P14735); assay: recombinant IDE activation, cell-free – biochemical, fluorescence polarization, counter-screen for IDE activator project, dose response (AID 588681)
# T1 sequence (P14735 whole entry): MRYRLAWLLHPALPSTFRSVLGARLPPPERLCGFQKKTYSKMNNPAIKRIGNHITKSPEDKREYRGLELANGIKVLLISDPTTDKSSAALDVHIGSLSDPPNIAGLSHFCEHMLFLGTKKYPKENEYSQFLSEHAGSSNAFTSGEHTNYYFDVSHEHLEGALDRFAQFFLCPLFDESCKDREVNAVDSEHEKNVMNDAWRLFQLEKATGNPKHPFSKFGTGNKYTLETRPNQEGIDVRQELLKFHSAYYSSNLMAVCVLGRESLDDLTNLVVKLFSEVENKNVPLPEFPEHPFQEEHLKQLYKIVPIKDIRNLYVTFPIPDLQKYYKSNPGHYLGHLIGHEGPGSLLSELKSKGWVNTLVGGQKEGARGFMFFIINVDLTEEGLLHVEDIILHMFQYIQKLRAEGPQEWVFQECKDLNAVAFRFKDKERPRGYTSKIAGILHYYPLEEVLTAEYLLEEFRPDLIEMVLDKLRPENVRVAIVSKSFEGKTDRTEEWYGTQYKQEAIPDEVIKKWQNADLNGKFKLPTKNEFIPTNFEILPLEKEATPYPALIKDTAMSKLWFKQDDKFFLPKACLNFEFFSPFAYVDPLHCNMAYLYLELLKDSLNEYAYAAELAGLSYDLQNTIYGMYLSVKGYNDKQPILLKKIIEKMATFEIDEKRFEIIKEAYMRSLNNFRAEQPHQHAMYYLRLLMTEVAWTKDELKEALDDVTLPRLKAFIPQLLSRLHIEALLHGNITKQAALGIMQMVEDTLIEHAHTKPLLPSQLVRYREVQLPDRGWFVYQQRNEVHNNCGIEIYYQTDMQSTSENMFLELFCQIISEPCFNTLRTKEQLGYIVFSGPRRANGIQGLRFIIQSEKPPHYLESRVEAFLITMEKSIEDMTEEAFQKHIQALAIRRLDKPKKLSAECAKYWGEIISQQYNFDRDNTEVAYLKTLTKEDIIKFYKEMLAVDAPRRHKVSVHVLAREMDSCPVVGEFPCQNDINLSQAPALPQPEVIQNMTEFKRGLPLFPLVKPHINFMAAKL
# [14] = molecular target: T2, Ubiquitin-conjugating enzyme E2 N (Homo sapiens, UniProt P61088); format: functional;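 also: Dose-response confirmation in a TR-FRET assay detecting UBC13-driven polyubiquitin chain formation, inhibition measured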
# T2 sequence (P61088 whole entry): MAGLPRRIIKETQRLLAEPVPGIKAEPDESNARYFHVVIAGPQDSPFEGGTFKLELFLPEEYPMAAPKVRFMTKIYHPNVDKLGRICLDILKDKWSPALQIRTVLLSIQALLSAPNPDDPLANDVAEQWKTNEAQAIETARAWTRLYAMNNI
# HEK293 [15] = assay: membrane integrity loss in HEK cells – cell-based, fluorescence, cytotoxicity control for IDE activator project, dose response (AID 588440); format: functional; details: Homo sapiens;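 also: cytotoxicity by LDH release measuring loss of membrane integrity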
# [16] = Trypanosoma cruzi growth suppression in host cells – NIH3T3 host cells, beta-gal luminescence, confirmation (AID 2044); format: functional, cell-based;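 also: intracellular parasites grown in NIH/3T3 mouse fibroblasts as host cells; luminescent beta-galactosidase reporter signal from transgenic T. cruzi replicating inside host cells; inhibitors lower the luminescence signal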
# HEK293 [17] = assay: optical interference in Abeta FP readout, dose response, artefact control for IDE activator project, biochemical, fluorescence polarization (AID 588442); format: functional, cell-based; details: Homo sapiens
# Insulin-degrading enzyme [18] = molecular target: T1, Insulin-degrading enzyme; assay: cellular IDE activation of Abeta substrate cleavage – fluorescence polarization, HEK cells, dose response (AID 588439); format: functional, cell-based
# [19] = NIH3T3 cell viability loss – ATP luminescence, mouse fibroblasts, counter-screen, dose response (AID 2010); format: functional, cell-based;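 also: cells exposed to compound for about 90 hours before reading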
# Estrogen receptor beta = Estrogen receptor beta (Homo sapiens, UniProt Q92731);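 also: recombinant ER-beta bound to coactivator SRC1 peptide in presence of estradiol agonist; inhibitors block coactivator peptide binding and lower the FRET signal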
# Cytochrome P450 1A2 = molecular target: T3, Cytochrome P450 1A2 (Homo sapiens, UniProt P05177);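 also: PubChem cytochrome P450 panel assay, CYP1A2 panel member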
# T3 sequence (P05177 whole entry): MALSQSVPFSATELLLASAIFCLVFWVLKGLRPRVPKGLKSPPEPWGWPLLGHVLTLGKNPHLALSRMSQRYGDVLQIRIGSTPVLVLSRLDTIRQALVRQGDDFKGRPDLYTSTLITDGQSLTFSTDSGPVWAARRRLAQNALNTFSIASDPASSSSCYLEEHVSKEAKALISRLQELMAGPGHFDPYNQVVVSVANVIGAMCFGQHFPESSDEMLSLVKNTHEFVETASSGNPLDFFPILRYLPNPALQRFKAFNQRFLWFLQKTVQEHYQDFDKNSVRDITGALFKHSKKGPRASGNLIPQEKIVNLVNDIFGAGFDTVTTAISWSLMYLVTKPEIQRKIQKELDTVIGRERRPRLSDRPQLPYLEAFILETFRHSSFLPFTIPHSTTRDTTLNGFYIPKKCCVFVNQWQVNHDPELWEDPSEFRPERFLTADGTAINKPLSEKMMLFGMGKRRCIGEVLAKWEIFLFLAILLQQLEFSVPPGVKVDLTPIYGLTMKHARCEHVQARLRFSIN
# [20] = molecular target: T4, Hepatocyte nuclear factor 4-alpha (Homo sapiens, UniProt P41235); format: functional, cell-based;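 also: biochemical luminescence-based dose-response counterscreen measuring inhibition of HNF4 dimerization, run alongside a screen for blockers of ABHD5–perilipin-5 interaction; split luciferase complementation of HNF4 fusion proteins in cell lysate measuring dimerization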
# T4 sequence (P41235 whole entry): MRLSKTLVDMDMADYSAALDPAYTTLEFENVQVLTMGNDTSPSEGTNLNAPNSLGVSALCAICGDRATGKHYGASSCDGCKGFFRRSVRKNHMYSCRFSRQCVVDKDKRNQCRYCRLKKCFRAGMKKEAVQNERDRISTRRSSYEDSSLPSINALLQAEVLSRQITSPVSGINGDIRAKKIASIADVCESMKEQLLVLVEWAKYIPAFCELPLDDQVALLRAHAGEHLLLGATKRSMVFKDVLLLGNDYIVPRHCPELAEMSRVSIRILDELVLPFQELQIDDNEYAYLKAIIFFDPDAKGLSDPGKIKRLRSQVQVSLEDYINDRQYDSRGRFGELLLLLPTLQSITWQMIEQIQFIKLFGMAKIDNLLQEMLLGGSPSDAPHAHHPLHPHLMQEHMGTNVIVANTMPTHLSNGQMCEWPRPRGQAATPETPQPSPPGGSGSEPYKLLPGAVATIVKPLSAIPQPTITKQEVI
# [21] = viability loss in HeLa cells – cytotoxicity control for MgcRacGAP inhibitor project, dose response (AID 624300); format: functional
# [22] = molecular target: T5, Rac GTPase-activating protein 1 (Homo sapiens, UniProt Q9H0H5); assay: blockers of MgcRacGAP-driven Rac1 GTP hydrolysis – biochemical, ADP Hunter fluorescence, primary and confirmatory, confirmation (AID 624330); format: functional
# T5 sequence (Q9H0H5 whole entry): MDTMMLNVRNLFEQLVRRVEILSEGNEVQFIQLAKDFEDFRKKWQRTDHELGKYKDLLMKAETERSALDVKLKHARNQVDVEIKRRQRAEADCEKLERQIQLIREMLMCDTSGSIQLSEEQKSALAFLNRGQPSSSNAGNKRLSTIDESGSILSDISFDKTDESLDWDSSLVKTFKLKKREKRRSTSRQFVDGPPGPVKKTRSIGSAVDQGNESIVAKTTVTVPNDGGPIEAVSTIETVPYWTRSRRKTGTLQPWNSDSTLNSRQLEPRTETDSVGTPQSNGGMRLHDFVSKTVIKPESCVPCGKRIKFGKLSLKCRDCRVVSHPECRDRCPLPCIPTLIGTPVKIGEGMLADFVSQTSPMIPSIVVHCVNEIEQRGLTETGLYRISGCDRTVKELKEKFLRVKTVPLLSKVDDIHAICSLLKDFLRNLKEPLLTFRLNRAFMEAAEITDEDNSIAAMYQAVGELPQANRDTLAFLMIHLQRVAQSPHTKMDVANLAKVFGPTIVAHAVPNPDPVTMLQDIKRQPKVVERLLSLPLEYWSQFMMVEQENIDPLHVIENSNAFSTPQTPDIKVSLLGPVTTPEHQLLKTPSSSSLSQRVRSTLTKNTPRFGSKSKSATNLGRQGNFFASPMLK
# Sequence of Melanocortin receptor 4 (P32245 whole entry): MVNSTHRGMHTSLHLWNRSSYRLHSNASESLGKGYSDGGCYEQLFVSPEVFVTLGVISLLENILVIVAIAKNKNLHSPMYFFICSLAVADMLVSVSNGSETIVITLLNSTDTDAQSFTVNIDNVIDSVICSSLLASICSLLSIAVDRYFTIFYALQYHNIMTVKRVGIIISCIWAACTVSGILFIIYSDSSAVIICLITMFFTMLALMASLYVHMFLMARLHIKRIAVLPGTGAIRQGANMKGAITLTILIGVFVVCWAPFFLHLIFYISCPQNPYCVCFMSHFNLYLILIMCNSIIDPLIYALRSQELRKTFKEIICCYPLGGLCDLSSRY
# Sequence of Estrogen receptor beta (Q92731 whole entry): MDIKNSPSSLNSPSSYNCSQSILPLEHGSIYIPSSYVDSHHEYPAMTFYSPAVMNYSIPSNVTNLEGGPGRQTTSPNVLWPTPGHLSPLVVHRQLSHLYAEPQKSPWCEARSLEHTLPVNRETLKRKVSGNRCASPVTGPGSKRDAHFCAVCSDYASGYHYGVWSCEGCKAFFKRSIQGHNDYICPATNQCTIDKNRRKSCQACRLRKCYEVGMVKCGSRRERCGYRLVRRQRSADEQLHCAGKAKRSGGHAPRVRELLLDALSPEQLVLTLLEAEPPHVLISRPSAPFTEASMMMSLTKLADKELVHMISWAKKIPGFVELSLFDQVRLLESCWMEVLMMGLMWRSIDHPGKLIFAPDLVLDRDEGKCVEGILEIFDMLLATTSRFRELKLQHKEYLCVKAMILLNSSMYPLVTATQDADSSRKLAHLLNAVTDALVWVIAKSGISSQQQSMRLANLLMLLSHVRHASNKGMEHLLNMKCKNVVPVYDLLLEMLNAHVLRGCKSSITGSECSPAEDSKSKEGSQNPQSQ
compound,measurement,setting,value
Cc1ccc(NC(=O)c2ccc3c(c2)OCCO3)cc1C,AC50,[1],5.65 µM (active)
same,AC50,[2],7.61 µM (active)
same,AC50,[3],> 52 µM (inactive)
same,EC50,[4],3.68 µM (active)
same,AC50,[5],> 52 µM (inactive)
same,EC50,[6],5.06 µM (active)
Cc1ccc2cc(C#N)c(SCc3nnc(-c4ccccc4[N+](=O)[O-])o3)nc2c1,EC50,[7],3.33 µM (active)
same,EC50,[8],4.3 µM (active)
Sc1ncc(-c2ccccc2)n1-c1cccc(Cl)c1,AC50,[9],11.7 µM (active)
same,AC50,[10],17.1 µM (active)
same,AC50,[11],16.1 µM (active)
same,AC50,[12],21.3 µM (active)
O=C(CCN1C(=O)/C(=C/C=C/c2ccccc2)SC1=S)Nc1cccnc1,EC50,Melanocortin receptor 4,> 89.2 µM (inactive)
CCN1CCN(CCNC(=O)c2ccc(/C=C3/Sc4ccccc4N(Cc4cccc(C)c4)C3=O)cc2)CC1,EC50,Insulin-degrading enzyme [13],> 54.7 µM (inactive)
same,IC50,[14],> 20 µM (inactive)
same,IC50,HEK293 [15],20.2 µM (inactive)
same,EC50,[16],1.29 µM (active)
same,EC50,HEK293 [17],> 54.7 µM (inactive)
same,EC50,Insulin-degrading enzyme [18],23.2 µM (inactive)
same,EC50,[19],8.45 µM (active)
Cc1ccccc1NC(=O)Cn1cnc2c1c(=O)n(C)c(=O)n2C,IC50,Estrogen receptor beta,> 50 µM (not active)
same,AC50,Cytochrome P450 1A2,15.8 µM (inconclusive)
CC(C)c1ccc(N2C=Nc3ccc(C(C)C)cc3C2)cc1,IC50,[20],22.5 µM (inactive)
COc1cc(-c2nc3ccc(C)cn3c2Nc2ccc3c(c2)OCCO3)ccc1O,CC50,[21],100 µM (active)
same,IC50,[22],34.2 µM (active)

# — ChEMBL document CHEMBL1201862, “PubChem BioAssay data set” (2004)
